In article PMC9280334 (Frontiers in Chemistry, 2022):

Columns and labels:
[1] = biological target: T1, AChE (electric eel) (Electrophorus electricus, UniProt O42275); assay: biochemical; assay type: biochemical; conditions: electric eel AChE; mean ± SEM of three experiments
T1 construct: purchased Sigma-Aldrich
Description: (§1) AChE, BuChE, 5,5'-dithiobis (2-nitrobenzoic acid) (DTNB), acetyl- and butyrylthiocholine iodides were purchased from Sigma-Aldrich. Five different concentrations of the corresponding compounds in ethanol-DMSO (9:1) were prepared. […] After 3 min of incubation, the substrate solution (acetylthiocholine iodide or butyrylthiocholine iodide, 0.05 M) was added and then incubated for at least 1 min at 25°C. […] The inhibition curve was obtained by plotting the percentage of enzyme activity (100% for the reference) versus the logarithm of the tested compound concentration. […]

[2] = biological target: T2, BuChE (equine serum) (Equus caballus, UniProt P81908); assay: biochemical; assay type: biochemical; conditions: equine serum BuChE; mean ± SEM of three experiments
T2 construct: purchased Sigma-Aldrich
Description: as §1

[3] = test system: PC12 cells; assay: Neuroprotection against H2O2-induced cell death in PC12 cells (MTT); assay type: cell-based; conditions: H2O2 (150 μM)-induced injury, mean ± SEM
Description: The cell viability was measured using MTT [3-(4,5-dimethylthiazol-2-yl)-2,5-diphenyl tetrazolium bromide] assay ([Datki et al., 2003]). PC12 cells (from the Iranian Biological Resource Center, IBRC) received different treatments, including no treatment (control), 150 μM H2O2 alone, or 150 μM H2O2 in combination with 0.1–50 μM of the tested compound. The cells were seeded at 1 × 10^4 cells/well and incubated at 37 °C under a 5% CO2 atmosphere for 24 h, then treated with the tested compound and incubated for 3 h. Next, the cells were exposed to H2O2 for 2 h again. The MTT solution (20 μl, 5 mg/ml) was next replaced with the medium and incubated for 4 h. 100 μl of DMSO was added to dissolve the formazan precipitate. Absorbance was then measured at 570 nm using a multi-mode plate reader (Biotek, Winooski, VT). Cell viability is expressed as a percentage relative to the untreated control.

[4] = biological target: T3, Aβ1-42 (Homo sapiens, UniProt P05067); assay: Inhibition of self-induced Aβ1-42 aggregation (ThT assay); assay type: biochemical; conditions: Aβ1-42 20 μM, compound 100 μM, after 48 h, ThT, mean ± SEM of three experiments
T3 construct: Amyloid-β protein 1–42 (Sigma A9810) was dissolved; purchased Sigma A9810
Description: Inhibitory properties of the compounds on self-induced and AChE-induced aggregation of amyloid-β protein 1–42 was determined using a thioflavin T (ThT)-based fluorescence assay with slight modifications ([Levine, 1993]). The ThT excitation/emission was measured at 448 nm/490 nm at 48 h using a SpectraMax® Microplate Reader. Amyloid-β protein 1–42 (Sigma A9810) was dissolved in Phosphate Buffer Saline pH 7.4 (PBS, HyClone Thermo Scientific) containing ammonium hydroxide (1%). Aβ1-42 (50 μM) was incubated for 24 h at 37°C for prefibrillation.
To determine AChE-induced Aβ1-42 aggregation, Aβ1-42 (20 μl) ± human recombinant AChE (0.01 u/ml, Sigma C1682) were added to […] of PBS buffer pH 7.4 including 0.15 M NaCl and 20 μM thioflavin T (ThT). The mixture was incubated at 37°C in the absence and presence of the compounds (100 μM) and the fluorescence intensities were determined. Due to the presence of the tested compounds, inhibition of self- or AChE-induced aggregation percent was determined by the following calculation: [100-((IFi/IFo) × 100)] where IFi and IFo are the fluorescence intensities obtained for Aβ ± AChE in the presence and in the absence of inhibitors.

T1 sequence (O42275 24-633): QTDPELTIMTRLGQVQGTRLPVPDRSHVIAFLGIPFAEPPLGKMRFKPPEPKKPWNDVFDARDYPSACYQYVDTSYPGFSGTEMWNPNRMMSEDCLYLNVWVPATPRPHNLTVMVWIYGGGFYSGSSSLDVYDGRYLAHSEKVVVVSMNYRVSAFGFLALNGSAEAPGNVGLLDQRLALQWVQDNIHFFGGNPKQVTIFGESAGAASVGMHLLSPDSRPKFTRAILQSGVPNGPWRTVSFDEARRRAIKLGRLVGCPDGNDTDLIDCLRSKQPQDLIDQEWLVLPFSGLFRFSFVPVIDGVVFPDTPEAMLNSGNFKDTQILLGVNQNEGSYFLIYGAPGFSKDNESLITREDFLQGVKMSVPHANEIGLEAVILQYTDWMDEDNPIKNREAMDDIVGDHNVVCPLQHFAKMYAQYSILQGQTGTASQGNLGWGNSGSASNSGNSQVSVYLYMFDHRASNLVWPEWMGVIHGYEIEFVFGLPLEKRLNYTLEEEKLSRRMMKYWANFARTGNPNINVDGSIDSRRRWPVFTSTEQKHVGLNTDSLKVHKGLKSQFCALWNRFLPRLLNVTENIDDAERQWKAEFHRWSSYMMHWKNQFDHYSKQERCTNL
T2 sequence (P81908 whole entry): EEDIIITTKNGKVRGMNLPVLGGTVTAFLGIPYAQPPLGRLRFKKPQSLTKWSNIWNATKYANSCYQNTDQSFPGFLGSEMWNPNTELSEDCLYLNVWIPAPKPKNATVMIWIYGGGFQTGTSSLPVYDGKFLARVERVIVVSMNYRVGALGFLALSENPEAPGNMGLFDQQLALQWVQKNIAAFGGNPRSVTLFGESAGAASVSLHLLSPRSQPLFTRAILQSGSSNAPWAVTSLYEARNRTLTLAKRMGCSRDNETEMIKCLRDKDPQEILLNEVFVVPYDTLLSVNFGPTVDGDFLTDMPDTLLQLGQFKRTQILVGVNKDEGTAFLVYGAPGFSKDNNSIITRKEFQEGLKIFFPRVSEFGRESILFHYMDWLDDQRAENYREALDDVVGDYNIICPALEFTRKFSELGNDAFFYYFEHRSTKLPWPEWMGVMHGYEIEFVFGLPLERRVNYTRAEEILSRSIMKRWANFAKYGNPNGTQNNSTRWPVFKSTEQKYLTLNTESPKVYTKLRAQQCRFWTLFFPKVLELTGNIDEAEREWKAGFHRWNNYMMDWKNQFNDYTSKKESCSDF
T3 sequence (P05067 672-713 limits assumed): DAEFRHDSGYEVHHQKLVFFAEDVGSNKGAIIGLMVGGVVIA

Structure (SMILES) | IC50 [1] | IC50 [2] | PC12 cell viability (% of control) ([3]; 0.1 μM compound) | PC12 cell viability (% of control) ([3]; 1 μM compound) | PC12 cell viability (% of control) ([3]; 5 μM compound) | PC12 cell viability (% of control) ([3]; 10 μM compound) | PC12 cell viability (% of control) ([3]; 20 μM compound) | PC12 cell viability (% of control) ([3]; 50 μM compound) | Inhibition of self-induced Aβ aggregation [4]
O=c1oc2ccccc2cc1-c1ccc(OCCCCC[n+]2ccccc2)cc1 [Compound 3m, 1-(5-(4-(2-Oxo-2H-chromen-3-yl)phenoxy)pentyl)pyridinium Bromide] | 0.072 ± 0.008 µM | 0.086 ± 0.01 µM |  |  |  |  |  |  | 
CN(C)c1cc[n+](CCCOc2ccc(-c3cc4ccccc4oc3=O)cc2)cc1 [Compound 3s, 4-(Dimethylamino)-1-(3-(4-(2-oxo-2H-chromen-3-yl)phenoxy)propyl)pyridin-1-ium Bromide] | 0.022 ± 0.0019 µM | 0.034 ± 0.0026 µM |  |  |  |  |  |  | 
COc1ccc2oc(=O)c(-c3ccc(OCCCC[n+]4ccccc4)cc3)cc2c1 [Compound 3h, 1-(4-(4-(6-Methoxy-2-oxo-2H-chromen-3-yl)phenoxy)butyl)pyridinium Bromide] | 1 ± 0.037 µM | 0.106 ± 0.008 µM |  |  |  |  |  |  | 
COc1cccc2cc(-c3ccc(OCCCC[n+]4ccccc4)cc3)c(=O)oc12 [Compound 3j, 1-(4-(4-(8-Methoxy-2-oxo-2H-chromen-3-yl)phenoxy)butyl)pyridinium Bromide] | 0.031 ± 0.005 µM | 0.097 ± 0.019 µM |  |  |  |  |  |  | 
O=c1oc2ccc(Br)cc2cc1-c1ccc(OCCC[n+]2ccccc2)cc1 [Compound 3e, 1-(3-(4-(6-Bromo-2-oxo-2H-chromen-3-yl)phenoxy)propyl)pyridinium Bromide] | 0.015 ± 0.003 µM | 0.033 ± 0.005 µM |  |  |  |  |  |  | 
COc1ccc2cc(-c3ccc(OCCCC[n+]4ccccc4)cc3)c(=O)oc2c1 [Compound 3i, 1-(4-(4-(7-Methoxy-2-oxo-2H-chromen-3-yl)phenoxy)butyl)pyridinium Bromide] | 0.144 ± 0.009 µM | 0.046 ± 0.001 µM |  |  |  |  |  |  | 
COc1cccc2cc(-c3ccc(OCCCCC[n+]4ccccc4)cc3)c(=O)oc12 [Compound 3n, 1-(5-(4-(8-Methoxy-2-oxo-2H-chromen-3-yl)phenoxy)pentyl)pyridinium Bromide] | 0.015 ± 0.002 µM | 0.123 ± 0.024 µM |  |  |  |  |  |  | 
O=c1c(O)c(-c2ccc(O)c(O)c2)oc2cc(O)cc(O)c12 [Quercetin, reference compound] |  |  | 37.7 ± 1.2 % of control | 44.2 ± 0.7 % of control | 50.7 ± 0.1 % of control | 55.8 ± 0.3 % of control | 59.6 ± 0.8 % of control | 61.0 ± 0.8 % of control | 
O=c1oc2ccc(Br)cc2cc1-c1ccc(OCCCCC[n+]2ccccc2)cc1 [Compound 3p, 1-(5-(4-(6-Bromo-2-oxo-2H-chromen-3-yl)phenoxy)pentyl)pyridinium Bromide] | 0.003 µM | 0.049 ± 0.005 µM |  |  |  |  |  |  | 
COc1ccc2oc(=O)c(-c3ccc(OCCC[n+]4ccccc4)cc3)cc2c1.[Br-] [Compound 3b, 1-(3-(4-(6-Methoxy-2-oxo-2H-chromen-3-yl)phenoxy)propyl)pyridinium Bromide] | 0.004 ± 0.001 µM | 0.068 ± 0.006 µM | 31.7 ± 1.4 % of control | 37.6 ± 1.1 % of control | 43.3 ± 0.9 % of control | 45.4 ± 1.3 % of control | 49.6 ± 0.9 % of control | 54.3 ± 1.6 % of control | 
COc1ccc2cc(-c3ccc(OCCC[n+]4ccccc4)cc3)c(=O)oc2c1 [Compound 3c, 1-(3-(4-(7-Methoxy-2-oxo-2H-chromen-3-yl)phenoxy)propyl)pyridinium Bromide] | 0.007 ± 0.001 µM | 0.057 ± 0.01 µM |  |  |  |  |  |  | 
CCc1ccc(C)[n+](CCCCCOc2ccc(-c3cc4cc(Br)ccc4oc3=O)cc2)c1 [Compound 3q, 1-(5-(4-(6-Bromo-2-oxo-2H-chromen-3-yl)phenoxy)pentyl)-5-ethyl-2-methylpyridin-1-ium Bromide] | 0.019 ± 0.0016 µM | 0.022 ± 0.0023 µM |  |  |  |  |  |  | 
COc1cc2c(cc1OC)C(=O)C(CC1CCN(Cc3ccccc3)CC1)C2 (stereo not drawn) [Donepezil, reference compound] |  |  |  |  |  |  |  |  | 30.8 ± 1.7%
O=c1oc2ccc(Br)cc2cc1-c1ccc(OCCCC[n+]2ccccc2)cc1 [Compound 3k, 1-(4-(4-(6-Bromo-2-oxo-2H-chromen-3-yl)phenoxy)butyl)pyridinium Bromide] | 0.04 ± 0.005 µM | 0.092 ± 0.009 µM |  |  |  |  |  |  | 
COc1cccc2cc(-c3ccc(OCCC[n+]4ccccc4)cc3)c(=O)oc12 [Compound 3d, 1-(3-(4-(8-Methoxy-2-oxo-2H-chromen-3-yl)phenoxy)propyl)pyridinium Bromide] | 0.081 ± 0.004 µM | 0.079 ± 0.009 µM |  |  |  |  |  |  | 
O=c1oc2ccc([N+](=O)[O-])cc2cc1-c1ccc(OCCCC[n+]2ccccc2)cc1.[Br-] [Compound 3l, 1-(4-(4-(6-Nitro-2-oxo-2H-chromen-3-yl)phenoxy)butyl)pyridinium Bromide] | 0.003 ± 0.001 µM | 0.059 ± 0.011 µM | 23.7 ± 0.5 % of control | 27.3 ± 1.2 % of control | 33.5 ± 1.2 % of control | 37.8 ± 1.0 % of control | 51.6 ± 1.1 % of control | 55.7 ± 2.0 % of control | 
O=c1oc2ccccc2cc1-c1ccc(OCCCC[n+]2ccccc2)cc1.[Br-] [Compound 3g, 1-(4-(4-(2-Oxo-2H-chromen-3-yl)phenoxy)butyl)pyridinium Bromide] | 0.007 ± 0.001 µM | 0.091 ± 0.018 µM | 30.2 ± 1.4 % of control | 33.6 ± 1.2 % of control | 36.6 ± 0.9 % of control | 45.8 ± 0.3 % of control | 48.7 ± 0.9 % of control | 49.9 ± 0.9 % of control | 
O=c1oc2ccc([N+](=O)[O-])cc2cc1-c1ccc(OCCCCC[n+]2ccccc2)cc1 [Compound 3o, 1-(5-(4-(6-Nitro-2-oxo-2H-chromen-3-yl)phenoxy)pentyl)pyridinium Bromide] | 0.022 ± 0.004 µM | 0.027 ± 0.002 µM |  |  |  |  |  |  | 
